The source of these data is US20230059136A1, “THE COMPOUNDS AND COMPOSITIONS FOR TREATING CONDITIONS ASSOCIATED WITH NLRP ACTIVITY” (Novartis AG, priority 2018, published 2023).

Structures are written as SMILES.

The first assay deals with IL-1β production in PMA-differentiated THP-1 cells. As to the kind of experiment: IL-1β production in PMA-differentiated THP-1 cells stimulated with gramicidin (hTHP-1 assay containing 2% fetal bovine serum). In kind it is cell-based, human. The conditions noted are these: Homo sapiens, THP-1, Table B1; 2% fetal bovine serum; cells printed as numeric bound; read-out: hTHP-1 IC50 (Average IC50 of compounds in hTHP-1 assay). On the procedure:
Procedure 1: IL-1β Production in PMA-Differentiated THP-1 Cells Stimulated with Gramicidin.
THP-1 cells were purchased from the American Type Culture Collection and sub-cultured according to instructions from the supplier. Cells were cultured in complete RPMI 1640 (containing 10% heat inactivated FBS, penicillin (100 units/ml) and streptomycin (100 μg/ml)), and maintained in log phase prior to experimental setup. Prior to the experiment, compounds were dissolved in dimethyl sulfoxide (DMSO) to generate a 30 mM stock. The compound stock was first pre-diluted in DMSO to 3, 0.34, 0.042 and 0.0083 mM intermediate concentrations and subsequently spotted using Echo550 liquid handler into an empty 384-well assay plate to achieve desired final concentration (e.g. 100, 33, 11, 3.7, 1.2, 0.41, 0.14, 0.046, 0.015, 0.0051, 0.0017 μM). DMSO was backfilled in the plate to achieve a final DMSO assay concentration of 0.37%. The plate was then sealed and stored at room temperature until required.
THP-1 cells were treated with PMA (Phorbol 12-myristate 13-acetate) (20 ng/ml) for 16-18 hours. On the day of the experiment the media was removed and adherent cells were detached with trypsin for 5 minutes. Cells were then harvested, washed with complete RPMI 1640, spun down, and resuspended in RPMI 1640 (containing 2% heat inactivated FBS, penicillin (100 units/ml) and streptomycin (100 μg/ml). The cells were plated in the 384-well assay plate containing the spotted compounds at a density of 50,000 cells/well (final assay volume 50 μl). Cells were incubated with compounds for 1 hour and then stimulated with gramicidin (5 μM) (Enzo) for 2 hours. Plates were then centrifuged at 340 g for 5 min. Cell free supernatant (40 μL) was collected using a 96-channel PlateMaster (Gilson) and the production of IL-1β was evaluated by HTRF (cisbio). The plates were incubated for 18 h at 4° C. and read using the preset HTRF program (donor emission at 620 nm, acceptor emission at 668 nm) of the SpectraMax i3x spectrophotometer (Molecular Devices, software SoftMax 6). A vehicle only control and a dose titration of CRID3 (100-0.0017 μM) were run concurrently with each experiment.
Procedure 2: IL-1β Production in PMA-Differentiated THP-1 Cells Stimulated with Gramicidin.
THP-1 cells were purchased from the American Type Culture Collection and sub-cultured according to instructions from the supplier. Prior to experiments, cells were cultured in complete RPMI 1640 (containing 10% heat inactivated FBS, penicillin (100 units/ml) and streptomycin (100 μg/ml)), and maintained in log phase prior to experimental setup. Prior to the experiment THP-1 were treated with PMA (Phorbol 12-myristate 13-acetate) (20 ng/ml) for 16-18 hours. Compounds were dissolved in dimethyl sulfoxide (DMSO) to generate a 30 mM stock. On the day of the experiment the media was removed and adherent cells were detached with trypsin for 5 minutes. Cells were then harvested, washed with complete RPMI 1640, spun down, resuspended in RPMI 1640 (containing 2% heat inactivated FBS, penicillin (100 units/ml) and streptomycin (100 μg/ml). The cells were plated in a 384-well plate at a density of 50,000 cells/well (final assay volume 50 μl). Compounds were first dissolved in assay medium to obtain a 5× top concentration of 500 μM. 10 step dilutions (1:3) were then undertaken in assay medium containing 1.67% DMSO. 5× compound solutions were added to the culture medium to achieve desired final concentration (e.g. 100, 33, 11, 3.7, 1.2, 0.41, 0.14, 0.046, 0.015, 0.0051, 0.0017 μM). Final DMSO concentration was at 0.37%. Cells were incubated with compounds for 1 hour and then stimulated with gramicidin (5 μM) (Enzo) for 2 hours. Plates were then centrifuged at 340 g for 5 min. Cell free supernatant (40 μL) was collected using a 96-channel PlateMaster (Gilson) and the production of IL-1β was evaluated by HTRF (cisbio). A vehicle only control and a dose titration of CRID3 (100-0.0017 μM) were run concurrently with each experiment. […]
Consider `CC(C)c1cc(F)cc(C(C)C)c1C(C)C(=O)N=S(N)(=O)c1cnc(C(C)(C)O)s1` (single isomer, unassigned) [Example 195, (R, R) or (R, S)-N-(amino (2-(2-hydroxypropan-2-yl)thiazol-5-yl)(oxo)-λ^6-sulfaneylidene)-2-(4-fluoro-2,6-diisopropylphenyl) propanamide], for which the IC50 was more than 30000 nM.

On to `CC(C)c1cc2c(c(C(C)C)c1CC(=O)N=S(N)(=O)c1ccc(C(C)(C)O)cc1)COC2` (single isomer, unassigned) [Example 302, (S) or (R)-N-(amino(4-(2-hydroxypropan-2-yl)phenyl)(oxo)-λ^6-sulfaneylidene)-2-(4,6-diisopropyl-1,3-dihydroisobenzofuran-5-yl)acetamide], for which the IC50 is more than 30000 nM. On the same count and under the same terms, in the case of `CNCc1ccc(S(N)(=O)=NC(=O)Cc2c(C(C)C)cc(C(F)F)cc2C(C)C)cc1` (single isomer, unassigned) [Example 329, (S) or (R)-N-(amino(4-((methylamino)methyl)phenyl)(oxo)-λ^6-sulfaneylidene)-2-(4-(difluoromethyl)-2,6-diisopropylphenyl) acetamide] it was more than 30000 nM. Same read-out and setting: as for `COCc1cc(C(C)C)c(CC(=O)N=S(N)(=O)c2ncc(C(C)(C)O)s2)c(C(C)C)n1` (single isomer, unassigned) [Example 273, (S) or (R)-N-(amino (5-(2-hydroxypropan-2-yl)thiazol-2-yl)(oxo)-λ^6-sulfaneylidene)-2-(2,4-diisopropyl-6-(methoxymethyl)pyridin-3-yl)acetamide], the figure is more than 30000 nM.

Staying with this assay, now noted: Homo sapiens, THP-1, Table B1; 2% fetal bovine serum; class symbols; read-out: hTHP-1 IC50 (Average IC50 of compounds in hTHP-1 assay).
`CC(C)c1cc(C#N)c(F)c(C(C)C)c1CC(=O)N=S(N)(=O)c1cc(C(C)(O)CO)n(-c2ccccc2)n1` (stereo not shown) [Example 247, N-(amino(5-(1,2-dihydroxypropan-2-yl)-1-phenyl-1H-pyrazol-3-yl)(oxo)-λ^6-sulfaneylidene)-2-(4-cyano-3-fluoro-2,6-diisopropylphenyl)acetamide]: the IC50 lay within 1000 to 5000 nM. The same measure, in the same setting: in the case of `CNCc1ccc(S(N)(=O)=NC(=O)Cc2c(C(C)C)cc(C(F)F)nc2C(C)C)cc1` (stereo not shown) [Example 254, N-(amino(4-((methylamino)methyl)phenyl)(oxo)-λ^6-sulfaneylidene)-2-(6-(difluoromethyl)-2,4-diisopropylpyridin-3-yl)acetamide] it was 5000 to 30000 nM; in that of `CC(C)c1cc2c(c(C(C)C)c1CC(=O)N=S(N)(=O)c1cnc(C(C)(O)CO)s1)COC2` (single isomer, unassigned) [Example 338], 200 to 1000 nM. Same read-out and setting: in the case of `CC(C)(O)c1ncc(S(N)(=O)=NC(=O)Cc2c(C3CC3)cc(F)cc2C(F)(F)F)s1` (single isomer, unassigned) [Example 196, (R) or (S)-N-(amino (2-(2-hydroxypropan-2-yl)thiazol-5-yl)(oxo)-λ^6-sulfaneylidene)-2-(2-cyclopropyl-4-fluoro-6-(trifluoromethyl)phenyl) acetamide] it was 5000 to 30000 nM; in that of `CC(C)c1cc(F)cc(C(C)C)c1CC(=O)NS(=N)(=O)c1ncc(C(C)(C)O)s1` [Example 8, (S)- and (R)-2-(4-fluoro-2,6-diisopropylphenyl)-N-(5-(2-hydroxypropan-2-yl)thiazole-2-sulfonimidoyl)acetamide], 1000 to 5000 nM.

The assay is the same for the next values; noted with them: Homo sapiens, THP-1, Table B2; 2% fetal bovine serum; cells printed as numeric bound; read-out: hTHP-1 IC50 (Average IC50 of compounds in hTHP-1 assay).
For the compound `COc1ccc(C(C)(C)O)cc1[S@](=O)(=NC(=O)Cc1c(C(C)C)cc(C#N)cc1C(C)C)NC#N` [Example 377, (S)-N-(cyanamido(5-(2-hydroxypropan-2-yl)-2-methoxyphenyl)(oxo)-λ^6-sulfaneylidene)-2-(4-cyano-2,6-diisopropylphenyl)acetamide], the IC50 was more than 30000 nM. Consider `CC(C)c1cc(C#N)cc(C(C)C)c1CC(=O)N=[S@](=O)(NC#N)c1ncc(C(C)(C)O)s1` [Example 365], for which the IC50 was more than 30000 nM.

The assay is the same for the next values; noted with them: Table B1; 2% fetal bovine serum; class symbols; read-out: hTHP-1 IC50 (Average IC50 of compounds in hTHP-1 assay).
In the case of `CCc1cc(OC(F)F)cc(C(C)C)c1CC(=O)N=S(N)(=O)c1sc(C(C)(C)O)cc1F` (stereo not shown) [Example 36, 2-(4-(difluoromethoxy)-2-ethyl-6-isopropylphenyl)-N-(3-fluoro-5-(2-hydroxypropan-2-yl)thiophene-2-sulfonimidoyl)acetamide], the IC50 was 200 to 1000 nM.

Regarding `CC(C)c1cc(C(F)F)cc(C(C)C)c1CC(=O)N=S(N)(=O)c1ccc(CN(C)C)cc1` (single isomer, unassigned) [Example 326, (S) or (R)-N-(amino(4-((dimethylamino)methyl)phenyl)(oxo)-λ^6-sulfaneylidene)-2-(4-(difluoromethyl)-2,6-diisopropylphenyl) acetamide], the IC50 was 5000 to 30000 nM. Same read-out and setting: as for `CC(C)c1ccc(F)c(C(C)C)c1CC(=O)N=S(N)(=O)c1ncc(C(C)(C)O)s1` (single isomer, unassigned) [Example 188, (R) or (S)-N-(amino(5-(2-hydroxypropan-2-yl)thiazol-2-yl)(oxo)-λ^6-sulfaneylidene)-2-(3-fluoro-2,6-diisopropylphenyl) acetamide], the figure is 200 to 1000 nM; as for `COCc1cc(C(C)C)c(CC(=O)N=S(N)(=O)c2cc(C(C)(C)O)cs2)c(C(C)C)c1` (single isomer, unassigned) [Example 158, (S) or (R)-N-(amino(4-(2-hydroxypropan-2-yl)thiophen-2-yl)(oxo)-λ^6-sulfaneylidene)-2-(2,6-diisopropyl-4-(methoxymethyl)phenyl)acetamide], 1000 to 5000 nM. Still for that read-out and setting: as for `CC(C)c1cc(C#N)cc(C(C)C)c1CC(=O)N=S(N)(=O)c1ncc(C(C)(C)O)s1` (single isomer, unassigned) [Example 83, (S)- or (R)-2-(4-cyano-2,6-diisopropylphenyl)-N-(5-(2-hydroxypropan-2-yl)thiazol-2-ylsulfonimidoyl)acetamide], the figure is 40 to 200 nM; as for `CC(C)c1cc(F)cc(C2CC2)c1CC(=O)N=S(N)(=O)c1sc(C(C)(C)O)cc1F` (single isomer, unassigned) [Example 52, (S)- or (R)-2-(2-cyclopropyl-4-fluoro-6-isopropylphenyl)-N-(3-fluoro-5-(2-hydroxypropan-2-yl)thiophen-2-ylsulfonimidoyl)acetamide], 8 to 40 nM; as for `CC(C)c1cc2c(c(C(C)C)c1CC(=O)N=S(N)(=O)c1sc(C(C)(C)O)cc1F)COC2` (single isomer, unassigned) [Example 321, (R) or (S)-N-(amino (3-fluoro-5-(2-hydroxypropan-2-yl)thiophen-2-yl)(oxo)-λ^6-sulfaneylidene)-2-(4,6-diisopropyl-1,3-dihydroisobenzofuran-5-yl)acetamide], 40 to 200 nM. On the same count and under the same terms, in the case of `CC(C)c1cc(C#N)cc(C(C)C)c1CC(=O)N=S(N)(=O)c1sc(C(C)(C)O)nc1CO` (single isomer, unassigned) [Example 64, N-(amino(4-(hydroxymethyl)-2-(2-hydroxypropan-2-yl)thiazol-5-yl)(oxo)-λ^6-sulfaneylidene)-2-(4-cyano-2,6-diisopropylphenyl)acetamide] it was 200 to 1000 nM.
